Experimental findings from BindingDB's records for doi:10.1021/jm00017a003 (Sterling Winthrop Pharmaecuticals Research Division, 1995) are described below.

The test can be described thus: The compound was tested for inhibition of HIV-1 replication in SW480 cells using HIV tat assay.

Consider `C[C@@]12CCCC[C@]13O[C@@H]3C(=O)C(C#N)C2` (some centres not stated), for which the midpoint of inhibition, the IC50, lay at 34 µM.

With `C[C@]12CCCC[C@]1(O)[C@H](Cl)C(=O)C(C(N)=O)C2` (some centres not stated), the IC50 (as a rule, the concentration at which inhibition is half-maximal) was 32.1 µM. The IC50 values of the last two compounds are within 1.5-fold of each other.

In the case of `C[C@]12CCCC[C@@]13O[C@H]3C(=O)C(C#N)C2` (some centres not stated), half-maximal inhibition (IC50) required 278 µM.

Turning to `C[C@@]12CCCC[C@@]1(O)[C@@H](Cl)C(=O)C(C(=O)Nc1ccccc1)C2` (some centres not stated), the IC50 stood at 7 µM.

Regarding `C[C@]12CC[C@H]3[C@@H](CC[C@@]45O[C@@H]4C(=O)C(S(=O)(=O)c4ccccc4)C[C@]35C)[C@@H]1CC[C@@H]2O` (some centres not stated), the 50% inhibitory concentration (IC50) worked out at 10.3 µM. The IC50 values of the last two compounds are within 1.5-fold of each other.

Regarding `CC(=O)O[C@H]1CC[C@H]2[C@@H]3CC[C@@]45O[C@@H]4C(=O)C(S(C)(=O)=O)C[C@]5(C)[C@H]3CC[C@]12C` (some centres not stated), 2.6 µM corresponded to half-maximal inhibition (IC50).

As for `CC(=O)O[C@H]1CC[C@H]2[C@@H]3CC[C@@]45O[C@@H]4C(=O)C(C(N)=O)C[C@]5(C)[C@H]3CC[C@]12C` (some centres not stated), the IC50 amounted to 2.6 µM.

`C[C@]12CC[C@H]3[C@@H](CC[C@@]45O[C@@H]4C(=O)C(C(N)=O)C[C@]35C)[C@@H]1CC[C@@H]2O` (some centres not stated) gave a half-maximal inhibitory concentration (IC50) of 14.3 µM. This IC50 lies about 5.5-fold higher than the previous one.

`COc1ccc(NC(=O)C2C[C@]3(C)CCCC[C@@]3(O)[C@@H](Cl)C2=O)cc1` (some centres not stated) had an IC50 of 33.5 µM. This IC50 is about 2.3-fold higher than that of the compound before.

On to `C[C@@]12CCCC[C@]13O[C@@H]3C(=O)C(C(=O)Nc1ccccc1)C2` (some centres not stated), for which half-maximal inhibition (IC50) required 2.8 µM.

On to `CC(=O)O[C@H]1CC[C@H]2[C@@H]3CC[C@@]45O[C@@H]4C(=O)C(C#N)C[C@]5(C)[C@H]3CC[C@]12C` (some centres not stated), for which it took 24.5 µM to reach half-maximal inhibition (IC50).

`CC(=O)O[C@H]1CC[C@H]2[C@@H]3CC[C@@]4(O)[C@@H](Cl)C(=O)C(C(N)=O)C[C@]4(C)[C@H]3CC[C@]12C` (some centres not stated) came in with an IC50 of 8.4 µM.

Regarding `COc1ccc(NC(=O)C2C[C@]3(C)CCCC[C@]34O[C@@H]4C2=O)cc1` (some centres not stated), the IC50 stood at 25.7 µM.

As for `C[C@@]12CCCC[C@@]1(O)[C@@H](Cl)C(=O)C(C(N)=O)C2` (some centres not stated), inhibition was half-maximal at 16.5 µM (IC50).

`C[C@@]12CCCC[C@]13O[C@@H]3C(=O)C(C(N)=O)C2` (some centres not stated) had an IC50 of 9.9 µM.

For the compound `C[C@]12CCCC[C@@]13O[C@H]3C(=O)C(C(N)=O)C2` (some centres not stated), the half-inhibitory concentration (IC50) is 72 µM.

Consider `C[C@]12CC[C@H]3[C@@H](CC[C@@]45O[C@@H]4C(=O)CC[C@]35C)[C@@H]1CC[C@@H]2O`, for which the IC50 stood at 15.4 µM. Against the preceding compound, the IC50 is about 4.7-fold lower.

`COc1ccc(NC(=O)C2CC(C)(C)C3OC3C2=O)cc1` (configuration not stated) yielded a 50% inhibitory concentration (IC50) of 21.4 µM.

In turn, `C[C@]12CCC3C(CC[C@@]45O[C@@H]4C(=O)C(S(C)(=O)=O)C[C@]35C)C1CC[C@@H]2O` (some centres not stated) displayed a half-maximal inhibitory concentration (IC50) of 8.4 µM.

In turn, `COC(=O)C1C[C@]2(C)[C@H]3CC[C@]4(C)[C@@H](OC(C)=O)CC[C@H]4[C@@H]3CC[C@]23O[C@@H]3C1=O` (some centres not stated) gave a half-maximal inhibitory concentration (IC50) of 2.7 µM. Compared with the last compound, the IC50 is about 3.1-fold lower.

Regarding `CC1(C)CC(C(=O)Nc2c(Cl)cccc2Cl)C(=O)C2OC21` (configuration not stated), the midpoint of inhibition, the IC50, lay at 31.7 µM.

The compound `COC(=O)C1C[C@]2(C)[C@H]3CC[C@]4(C)[C@@H](O)CC[C@H]4[C@@H]3CC[C@]23O[C@@H]3C1=O` (some centres not stated) displayed an IC50 of 3.6 µM.
